This is an account of results in patent US20070088043A1, “Novel HDAC inhibitors” (ORCHID RESEARCH LABORATORIES LIMITED., priority 2005, published 2007).

One assay concerns NCIH 460 cells. Description: Anti-cancer screen (MTT), NCIH460. In kind it is cell-based. The settings on record: Homo sapiens, NCI-H460, NCIH460 cells, 48 hours, MTT; for GI50: concentration to decrease % growth by 50%; for IC100: concentration to decrease % growth by 100%, read-out: NCIH460 TGI; for LC50: concentration to decrease % growth by 150%. Summed up: (§1)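 HCT116, NCIH460 and U251 cells (5000/well, DMEM + 10% FBS) seeded 24 h, then treated 48 h in triplicate at 0.01, 0.1, 1, 10, 100 μM; time-zero plate kept. MTT 3 h, formazan in DMSO read at 570 nm; GI50, TGI, LC50 derived.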

For the next assay, the system named is HCT 116 cells. Description: Anti-cancer screen (MTT), HCT116. The assay is classed as cell-based. The settings on record: Homo sapiens, HCT-116, HCT116 cells, 48 hours, MTT; for GI50: concentration to decrease % growth by 50%; for IC100: concentration to decrease % growth by 100%, read-out: HCT116 TGI; for LC50: concentration to decrease % growth by 150%. Summed up: as §1

For another assay, the system named is MDAMB231/U251. Description: Anti-cancer screen (MTT), MDAMB231/U251. In kind it is cell-based. The settings on record: MDAMB231/U251 cells, 48 hours; for GI50: concentration to decrease % growth by 50%; for IC100: concentration to decrease % growth by 100%, read-out: MDAMB231/U251 TGI; for LC50: concentration to decrease % growth by 150%. In short, it runs like this: as §1

The test system of assay [1] is NCIH460, HCT116, MDAMB231/U251. Description: Anti-cancer screen, mean GI50 over the cell lines. In kind it is cell-based. The settings on record: in µM. Summed up: as §1
For assay [2], the system named is HDAC (Mouse Liver Extract). Nature of the assay: Histone Deacetylase (HDAC) Inhibition Assay using Boc-Lys (Ac)-AMC Substrate. As to conditions: mouse liver enzyme, NA = No Activity, in % (unit assumed). In kind it is biochemical. Summed up: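 Mouse liver extract was the HDAC source. It was preincubated with inhibitor for 5 min at 30° C, then incubated with Boc-Lys(Ac)-AMC substrate for 30 min at 30° C. Trypsin stop solution was added for a 20–30 min development step, and released AMC was read by fluorescence (ex 360/365, em 440/460 nm) with blank subtraction.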

By GI50 is commonly meant the concentration at which growth is held to half of that of the control. By LC50 is commonly meant the concentration that kills 50% of the test population. Lower therefore signals a more lethal substance. With `CC(=O)SCCCCC(=O)N1CCN(CC(=O)Nc2nc(C)cs2)CC1` [Example 4, 2-[4-(5-Thioacetylpentanoyl)piperazin-1-yl]-N-(4-methyl-1,3-thiazol-2-yl)acetamide], in the assay on NCIH 460 cells, it took 9 µM to inhibit growth by half (GI50), the IC100 amounted to 91 µM and the LC50 is greater than 100 µM. In the assay with HCT 116 cells, the GI50 turned out to be 60 µM, the IC100 was greater than 100 µM and the LC50 was greater than 100 µM. Further, in the assay with MDAMB231/U251, halving of growth (GI50) required 45 µM, the IC100 was greater than 100 µM and the LC50 is greater than 100 µM. The “Mean GI50” value in assay [1] amounted to 38. In assay [2], the “HDAC Inhibition 1 μM” value was found to be 15.82 and the “HDAC Inhibition 10 μM” value stood at 50.88.

For `CC(=O)SCCCCC(=O)N1CCN(CC(=O)Nc2nc(C(C)(C)C)cs2)CC1` [Example 14, 2-[4-(5-Thioacetylpentanoyl)piperazin-1-yl]-N-(4-tertiarybutyl-1,3-thiazol-2-yl)acetamide], in the assay on NCIH 460 cells, the GI50 was greater than 100 µM, the IC100 is greater than 100 µM and the LC50 was greater than 100 µM. In addition, in the assay with HCT 116 cells, the GI50 stood at 50 µM, the IC100 is greater than 100 µM and the LC50 was greater than 100 µM. In the assay on MDAMB231/U251, the GI50 was determined as 0.08 µM, the IC100 worked out at 27 µM and the LC50 was greater than 100 µM. In addition, the “Mean GI50” value in assay [1] was greater than 100. In assay [2], the “HDAC Inhibition 1 μM” value worked out at 23.11 and the “HDAC Inhibition 10 μM” value came out at 57.33.

Take `CC(=O)SCCCCC(=O)N1CCN(C(=O)CNc2nc3ccccc3s2)CC1` [Example 1, N-{2-[4-(5-thioacetylpentanoyl)piperazin-1-yl]-2-oxoethyl}-1,3-benzothiazol-2-amine]: in the assay on NCIH 460 cells, the GI50 is greater than 100 µM, the IC100 was greater than 100 µM and the LC50 was greater than 100 µM. In the assay on HCT 116 cells, the GI50 is greater than 100 µM, the IC100 is greater than 100 µM and the LC50 was greater than 100 µM. Moreover, in the assay on MDAMB231/U251, growth was halved (GI50) at 80 µM, the IC100 is greater than 100 µM and the LC50 was greater than 100 µM. In addition, the “Mean GI50” value in assay [1] is greater than 100. Further, in assay [2], the “HDAC Inhibition 1 μM” value was found to be 10.48 and the “HDAC Inhibition 10 μM” value came out at 38.59.

In the case of `CC(=O)SCCCCCC(=O)N1CCN(CC(=O)Nc2nc(C)cs2)CC1` [Example 17, 2-[4-(6-Thioacetylhexanoyl)piperazin-1-yl]-N-(4-methyl-1,3-thiazol-2-yl)acetamide], in the assay with NCIH 460 cells, the GI50 was found to be 7.5 µM, the IC100 was greater than 100 µM and the LC50 was greater than 100 µM. In addition, in the assay with HCT 116 cells, the GI50 amounted to 26 µM, the IC100 was greater than 100 µM and the LC50 was greater than 100 µM. In the assay on MDAMB231/U251, the GI50 amounted to 67 µM, the IC100 is greater than 100 µM and the LC50 is greater than 100 µM. In assay [1], the “Mean GI50” value stood at 33.50. In assay [2], the “HDAC Inhibition 1 μM” value is 68.04 and the “HDAC Inhibition 10 μM” value was determined as 96.19.

`CCOc1ccc2nc(NC(=O)CN3CCN(C(=O)CCCCCCC(=O)N(O)C(C)=O)CC3)sc2c1` [Example 37, 8-{4-[2-(6-Ethoxy-1,3-benzothiazol-2-ylamino)-2-oxoethyl]piperazin-1-yl}-N-acetyl-N-hydroxy-8-oxooctanamide]: in the assay with NCIH 460 cells, halving of growth (GI50) required 40 µM, the IC100 came out at 74 µM and the LC50 was greater than 100 µM. Moreover, in the assay with HCT 116 cells, halving of growth (GI50) required 7 µM, the IC100 stood at 44 µM and the LC50 is greater than 100 µM. In the assay on MDAMB231/U251, growth was halved (GI50) at 4 µM, the IC100 stood at 45 µM and the LC50 was 95 µM. Moreover, in assay [1], the “Mean GI50” value is on record as 17.00. For the same compound, in assay [2], the “HDAC Inhibition 1 μM” value came out at 55.57 and the “HDAC Inhibition 10 μM” value was determined as 94.70.
